Experimental data reported in ChEMBL document CHEMBL1201862, “PubChem BioAssay data set” (2004).
Activity calls are given as the source filed them.

Experiments:
[1] = biological target: Dual specificity tyrosine-phosphorylation-regulated kinase 1A (Rattus norvegicus, UniProt Q63470); assay type: biochemical, Homo sapiens
[2] = biological target: Nucleotide-binding oligomerization domain-containing protein 2 (Homo sapiens, UniProt Q9HC29); experiment: inhibition of NOD2-driven NF-kB reporter – cell-based, luminescence, uHTS, HEK293 (AID 1566); assay type: functional
Nucleotide-binding oligomerization domain-containing protein 2, sequence (Q9HC29 whole entry, the tested form may be a part): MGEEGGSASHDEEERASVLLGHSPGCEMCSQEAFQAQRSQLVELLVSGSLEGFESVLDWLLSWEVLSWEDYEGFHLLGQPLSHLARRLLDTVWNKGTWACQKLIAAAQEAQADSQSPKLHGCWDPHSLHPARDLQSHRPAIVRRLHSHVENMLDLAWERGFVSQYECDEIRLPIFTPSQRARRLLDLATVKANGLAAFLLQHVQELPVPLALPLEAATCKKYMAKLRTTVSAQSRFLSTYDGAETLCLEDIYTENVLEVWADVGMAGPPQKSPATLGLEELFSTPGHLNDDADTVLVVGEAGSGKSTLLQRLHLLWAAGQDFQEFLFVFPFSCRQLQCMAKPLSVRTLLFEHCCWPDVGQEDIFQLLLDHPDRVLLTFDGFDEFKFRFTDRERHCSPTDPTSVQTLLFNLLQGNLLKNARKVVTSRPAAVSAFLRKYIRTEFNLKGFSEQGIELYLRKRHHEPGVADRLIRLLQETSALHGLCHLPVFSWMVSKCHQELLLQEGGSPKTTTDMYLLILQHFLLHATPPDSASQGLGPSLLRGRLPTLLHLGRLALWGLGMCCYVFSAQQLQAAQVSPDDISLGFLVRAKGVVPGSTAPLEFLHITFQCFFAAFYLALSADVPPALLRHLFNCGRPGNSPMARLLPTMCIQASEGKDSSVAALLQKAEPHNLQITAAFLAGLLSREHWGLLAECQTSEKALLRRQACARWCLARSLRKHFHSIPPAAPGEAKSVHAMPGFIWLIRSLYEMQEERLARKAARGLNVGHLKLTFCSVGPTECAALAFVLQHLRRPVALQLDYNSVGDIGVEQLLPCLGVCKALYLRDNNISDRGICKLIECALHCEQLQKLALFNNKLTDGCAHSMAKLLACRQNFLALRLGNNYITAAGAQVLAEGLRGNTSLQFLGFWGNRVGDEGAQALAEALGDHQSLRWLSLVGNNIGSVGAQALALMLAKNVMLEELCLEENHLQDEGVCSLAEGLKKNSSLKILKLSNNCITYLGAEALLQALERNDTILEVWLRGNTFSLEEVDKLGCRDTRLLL

HEK293 [3] = experiment: cells; assay type: functional, cell-based; conditions: Homo sapiens
HEK293 [4] = experiment: cells; assay type: functional, cell-based; conditions: Homo sapiens; remark: listed apart in the source
HEK293 [5] = experiment: inhibition of NOD1-driven NF-kB reporter – cell-based, luminescence, uHTS, primary screen (AID 1578); assay type: functional; conditions: Homo sapiens
HEK293 [6] = experiment: cells; assay type: functional, cell-based; conditions: Homo sapiens; remark: listed apart in the source
HEK293 [7] = experiment: NOD2 signaling inhibitors in MDP-stimulated cells, cell-based, uHTS, luminescence (AID 2001); assay type: functional; conditions: Homo sapiens
[8] = biological target: Beta-2 adrenergic receptor (Homo sapiens, UniProt P07550); experiment: ADRB2 activation measured by internalization – cell-based, FAP fluorogen, flow cytometry, cherry pick 1, dose response (AID 588763); assay type: functional
Beta-2 adrenergic receptor, sequence (P07550 whole entry): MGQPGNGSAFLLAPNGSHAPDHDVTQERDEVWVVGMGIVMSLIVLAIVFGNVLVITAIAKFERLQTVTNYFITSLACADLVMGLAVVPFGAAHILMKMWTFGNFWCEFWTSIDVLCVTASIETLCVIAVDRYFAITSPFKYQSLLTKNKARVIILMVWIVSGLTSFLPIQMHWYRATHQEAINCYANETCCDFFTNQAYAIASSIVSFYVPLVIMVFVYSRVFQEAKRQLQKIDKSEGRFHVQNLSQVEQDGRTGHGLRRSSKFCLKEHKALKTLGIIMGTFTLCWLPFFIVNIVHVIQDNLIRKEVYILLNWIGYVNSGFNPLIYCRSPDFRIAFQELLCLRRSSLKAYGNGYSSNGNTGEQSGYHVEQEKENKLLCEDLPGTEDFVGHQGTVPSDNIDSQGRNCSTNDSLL

Cytochrome P450 2D6 = Cytochrome P450 2D6 (Homo sapiens, UniProt P10635);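 further: CYP2D6 member of a cytochrome P450 panel assay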
Cytochrome P450 2D6, sequence (P10635 whole entry): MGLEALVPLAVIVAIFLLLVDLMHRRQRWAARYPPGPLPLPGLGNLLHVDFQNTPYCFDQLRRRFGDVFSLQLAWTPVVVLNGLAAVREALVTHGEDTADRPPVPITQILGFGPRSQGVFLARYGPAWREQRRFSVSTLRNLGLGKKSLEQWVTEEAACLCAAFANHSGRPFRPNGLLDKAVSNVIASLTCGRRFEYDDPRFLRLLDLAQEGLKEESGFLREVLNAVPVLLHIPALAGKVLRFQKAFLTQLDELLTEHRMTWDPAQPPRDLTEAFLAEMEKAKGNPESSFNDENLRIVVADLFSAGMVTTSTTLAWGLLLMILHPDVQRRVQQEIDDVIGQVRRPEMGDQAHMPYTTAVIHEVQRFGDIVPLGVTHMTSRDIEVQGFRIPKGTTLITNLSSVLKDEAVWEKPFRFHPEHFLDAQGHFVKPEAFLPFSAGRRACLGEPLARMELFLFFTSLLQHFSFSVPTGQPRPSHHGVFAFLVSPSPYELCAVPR

[9] = biological target: T1, High affinity choline transporter 1 (Homo sapiens, UniProt Q9GZV3); experiment: human choline transporter blockers, potency – cell-based, 5-point CRC, membrane potential dye, dose response (AID 504840); assay type: functional
T1 sequence (Q9GZV3 whole entry): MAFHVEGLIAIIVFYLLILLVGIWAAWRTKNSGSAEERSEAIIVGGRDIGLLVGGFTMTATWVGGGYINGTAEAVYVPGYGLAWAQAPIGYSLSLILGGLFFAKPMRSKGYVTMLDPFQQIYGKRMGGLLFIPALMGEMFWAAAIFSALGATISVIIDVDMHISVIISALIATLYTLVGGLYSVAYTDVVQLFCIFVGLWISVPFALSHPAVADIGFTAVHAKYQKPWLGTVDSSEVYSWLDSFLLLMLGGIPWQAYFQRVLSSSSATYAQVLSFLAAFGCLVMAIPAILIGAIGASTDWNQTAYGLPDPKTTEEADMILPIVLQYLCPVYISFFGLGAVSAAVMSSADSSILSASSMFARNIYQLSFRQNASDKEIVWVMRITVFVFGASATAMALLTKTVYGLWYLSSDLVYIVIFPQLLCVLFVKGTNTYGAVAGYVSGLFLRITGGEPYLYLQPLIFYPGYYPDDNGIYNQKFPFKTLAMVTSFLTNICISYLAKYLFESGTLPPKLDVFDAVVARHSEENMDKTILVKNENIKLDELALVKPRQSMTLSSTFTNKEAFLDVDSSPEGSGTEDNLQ

Vero = experiment: viability of Vero cells under compound – cytotoxicity control for flavivirus capping enzyme inhibitors (AID 588742); assay type: functional; conditions: Chlorocebus sabaeus
[10] = biological target: T2, Sentrin-specific protease 1 (Homo sapiens, UniProt Q9P0U3); experiment: Dose response confirmation of small molecule inhibitors of the catalytic domain of the SUMO protease, SENP1 in a FRET assay.; assay type: functional; conditions: read-out: IC50_Mean
T2 sequence (Q9P0U3 whole entry): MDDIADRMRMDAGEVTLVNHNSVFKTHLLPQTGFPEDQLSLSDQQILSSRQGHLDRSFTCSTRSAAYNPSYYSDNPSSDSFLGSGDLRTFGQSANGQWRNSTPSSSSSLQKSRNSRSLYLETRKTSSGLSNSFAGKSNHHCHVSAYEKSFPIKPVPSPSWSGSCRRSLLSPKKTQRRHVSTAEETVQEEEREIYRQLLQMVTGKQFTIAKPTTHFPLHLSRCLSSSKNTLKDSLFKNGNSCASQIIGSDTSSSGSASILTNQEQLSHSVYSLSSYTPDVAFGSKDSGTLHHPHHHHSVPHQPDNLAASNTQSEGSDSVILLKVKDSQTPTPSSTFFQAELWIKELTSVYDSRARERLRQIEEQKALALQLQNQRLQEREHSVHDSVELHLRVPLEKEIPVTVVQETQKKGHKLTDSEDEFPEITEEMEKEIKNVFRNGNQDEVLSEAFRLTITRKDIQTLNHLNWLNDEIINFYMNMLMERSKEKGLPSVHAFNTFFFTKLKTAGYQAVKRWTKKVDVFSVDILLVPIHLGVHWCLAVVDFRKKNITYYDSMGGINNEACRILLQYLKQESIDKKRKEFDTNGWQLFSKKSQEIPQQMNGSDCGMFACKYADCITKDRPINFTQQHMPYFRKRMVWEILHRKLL

[11] = biological target: T2, Sentrin-specific protease 1; experiment: SENP1 catalytic domain blockers, concentration series – biochemical, kinetic FRET, dose response (AID 651697); assay type: functional; conditions: read-out: IC50_Mean
Cytochrome P450 2C19 = Cytochrome P450 2C19 (Homo sapiens, UniProt P33261); experiment: Cytochrome panel assay with activity outcomes. Panel member name: p450-cyp2c19 Compounds with AC50 equal or less than 10 uM are considered active; assay type: functional; conditions: read-out: AC50
Cytochrome P450 2C19, sequence (P33261 whole entry): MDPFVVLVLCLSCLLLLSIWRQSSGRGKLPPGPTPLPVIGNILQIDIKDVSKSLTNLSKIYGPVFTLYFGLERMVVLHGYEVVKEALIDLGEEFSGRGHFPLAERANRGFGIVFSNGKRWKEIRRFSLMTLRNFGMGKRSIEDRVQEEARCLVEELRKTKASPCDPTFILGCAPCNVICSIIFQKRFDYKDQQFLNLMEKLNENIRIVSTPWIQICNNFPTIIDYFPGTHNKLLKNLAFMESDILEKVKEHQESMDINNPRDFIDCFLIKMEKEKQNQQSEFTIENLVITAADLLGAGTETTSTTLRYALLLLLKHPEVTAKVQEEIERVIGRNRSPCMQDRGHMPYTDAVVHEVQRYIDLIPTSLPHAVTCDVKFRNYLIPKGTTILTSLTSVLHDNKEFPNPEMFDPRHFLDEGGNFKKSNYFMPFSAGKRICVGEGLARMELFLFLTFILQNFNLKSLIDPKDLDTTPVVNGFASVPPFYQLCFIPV

Cytochrome P450 2C9 = Cytochrome P450 2C9 (Homo sapiens, UniProt P11712)
Cytochrome P450 2C9, sequence (P11712 whole entry): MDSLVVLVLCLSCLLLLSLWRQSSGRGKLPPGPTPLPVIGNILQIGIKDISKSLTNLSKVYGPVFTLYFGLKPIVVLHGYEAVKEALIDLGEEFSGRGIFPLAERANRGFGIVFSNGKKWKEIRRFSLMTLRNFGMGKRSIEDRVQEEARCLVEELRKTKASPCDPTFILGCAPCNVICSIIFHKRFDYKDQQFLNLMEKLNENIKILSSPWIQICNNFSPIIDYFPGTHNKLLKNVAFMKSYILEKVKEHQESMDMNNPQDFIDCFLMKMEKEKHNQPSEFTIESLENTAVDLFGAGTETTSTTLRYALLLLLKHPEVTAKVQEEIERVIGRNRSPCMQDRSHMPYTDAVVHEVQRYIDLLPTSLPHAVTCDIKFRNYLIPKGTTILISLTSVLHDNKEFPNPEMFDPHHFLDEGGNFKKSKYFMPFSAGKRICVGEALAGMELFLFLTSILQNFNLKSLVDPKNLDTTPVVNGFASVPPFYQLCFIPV

HEK293 [12] = experiment: cells; conditions: Homo sapiens
HEK293 [13] = experiment: cells; conditions: Homo sapiens; remark: listed apart in the source
[14] = blockers of HIV-1 ZM109 envelope-driven cell-cell fusion – HeLa effector, CEM target cells, luciferase, cherry-pick, dose response (AID 652058); assay type: functional, cell-based;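 further: luciferase signal from HIV-1 Env mediated cell-cell fusion of effector and target cells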
[15] = off-target signal loss in HeLa-CEM21 co-culture – HeLa F-luc CTL cells, cherry-picked, counter-screen for HIV-1 Env fusion inhibitor project, dose response (AID 652040); assay type: functional, cell-based;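 further: potency for signal decrease marking cytotoxic or nonspecific inhibition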
[16] = HIV-1 AD8 envelope cell-cell fusion blockers – cherry-pick, dose response (AID 652062); assay type: functional, cell-based;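 further: luciferase signal from cell-cell fusion driven by HIV-1 clade B AD8 Env; potency is for inhibitors of fusion seen as a drop in luminescence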
[17] = blockers of HIV-1 envelope-mediated cell-cell fusion – cherry-pick, dose response (AID 652057); assay type: functional, cell-based
[18] = biological target: T3, Heat shock factor protein 1 (Mus musculus, UniProt P38532); experiment: enhancement of HSF1-driven luciferase signal – cell-based, NIH3T3, luminescence, dose retest, confirmation (AID 435004); assay type: functional;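 further: stress induced by proteasome inhibitor MG132 added 30 min after compound; luciferase reporter driven by HSF1 response element in NIH3T3 cells; actives raise luminescence as potentiators of the MG132 stress response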
T3 sequence (P38532 whole entry): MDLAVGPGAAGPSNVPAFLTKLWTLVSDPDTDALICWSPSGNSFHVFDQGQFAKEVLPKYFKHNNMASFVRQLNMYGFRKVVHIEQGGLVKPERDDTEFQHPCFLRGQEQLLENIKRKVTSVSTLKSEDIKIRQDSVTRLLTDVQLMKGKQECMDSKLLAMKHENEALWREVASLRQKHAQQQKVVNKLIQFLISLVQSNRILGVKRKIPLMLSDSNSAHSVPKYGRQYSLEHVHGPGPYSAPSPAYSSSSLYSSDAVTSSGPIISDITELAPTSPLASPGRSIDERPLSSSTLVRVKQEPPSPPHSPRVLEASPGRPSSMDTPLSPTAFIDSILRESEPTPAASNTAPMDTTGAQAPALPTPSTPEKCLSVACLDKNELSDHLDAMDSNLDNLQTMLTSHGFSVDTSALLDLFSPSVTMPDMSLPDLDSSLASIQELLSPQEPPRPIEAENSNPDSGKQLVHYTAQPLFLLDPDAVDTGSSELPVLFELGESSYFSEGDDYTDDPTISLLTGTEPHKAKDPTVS

Q: Which results are given for `CN(C)S(=O)(=O)c1cccc(NC(S)=Nc2cccc3cnccc23)c1`?
A: AC50 [1]: 3.86 µM (active); EC50 [2]: 9.33 µM (active); IC50 (HEK293 [3]): > 20 µM (inactive); IC50 (HEK293 [4]): 3.39 µM (active); EC50 (HEK293 [5]): 10.6 µM (active); IC50 (HEK293 [6]): 13.4 µM (active); IC50 (HEK293 [7]): 4.64 µM (active)

Q: With `CCN(CC)S(=O)(=O)c1cc(NC(=O)C2=COCCO2)ccc1Cl` as the compound, how does the EC50 [8] read?
A: Its EC50 is 0.038 µM (active).

Q: Which AC50 (Cytochrome P450 2D6) does the source give for `N/C(CC/C(N)=N/O)=N\O` here?
A: Its AC50 is “inconclusive”.

Q: For `Cc1ccccc1N1C(=O)NC(=O)/C(=C\c2c(-c3ccccc3)[nH]c3ccccc23)C1=O`, which IC50 [9] is on record?
A: The IC50 was 11 µM (active).

Q: What about the IC50 (HEK293 [4]) of the same compound?
A: The IC50 was 8.69 µM (active).

Q: And the EC50 (HEK293 [5])?
A: Its EC50 is 6.37 µM (active).

Q: And the IC50 (HEK293 [6])?
A: Its IC50 is > 20 µM (inactive).

Q: And the CC50 (Vero)?
A: The CC50 was 23.2 µM (active).

Q: What about the IC50 (HEK293 [7]) of the same compound?
A: Its IC50 is 15.4 µM (inactive).

Q: Which IC50 [10] does the source give for `CCOc1ccc(/C=C/C(=O)Nc2ccc(OC)cc2[N+](=O)[O-])cc1` here?
A: Its IC50 is 5.84 µM (active).

Q: And the IC50 [11]?
A: The IC50 was 6.32 µM (active).

Q: And the AC50 (Cytochrome P450 2D6)?
A: The AC50 was “inconclusive”.

Q: What about the AC50 (Cytochrome P450 2C19) of the same compound?
A: The AC50 was 39.8 µM (inconclusive).

Q: And the AC50 (Cytochrome P450 2C9)?
A: The AC50 was “inconclusive”.

Q: Which results are given for `CCN(C[C@H]1N[C@@](CC)(C(=O)OC)[C@H]2C(=O)N(Cc3ccccc3)C(=O)[C@@H]12)S(=O)(=O)c1ccc(OC)cc1`?
A: EC50 (HEK293 [12]): > 59.6 µM (inactive); EC50 (HEK293 [13]): > 59.6 µM (inactive); AC50 [14]: 3.76 µM (active); AC50 [15]: 1.89 µM (active); AC50 [16]: 7.2 µM (active); AC50 [17]: 1.64 µM (active)

Q: Which EC50 (HEK293 [12]) does the source give for `CCCCSc1nc2c(=S)n(C)c(=O)n(C)c2[nH]1` here?
A: Its EC50 is > 59.5 µM (inactive).

Q: And the EC50 (HEK293 [13])?
A: The EC50 was > 59.5 µM (inactive).

Q: Which AC50 [1] does the source give for `COc1ccc(/C=c2\s/c(=C\C(=O)C(C)(C)C)[nH]c2=O)cc1O` here?
A: Its AC50 is 4.65 µM (active).

Q: What about the EC50 [18] of the same compound?
A: The EC50 was 41.8 µM (active).
